Laboratory results as given in patent US20230263762A1, “COMPOSITION AND METHOD FOR TREATING INFECTIONS” (priority 2020, published 2023).

Experiments:
[1] = test system: SARS-CoV-2 (USA-WA1/2020 strain); test: Direct injection into viral suspension, plaque assay on Vero E6 cells; assay type: cell-based; conditions: for reduction of viral burden by individual components: 1.4 and 3.9 µls propionic acid, 0.6 and 1.1 µls isoamyl hexanoates; for decline in viral burden: 360 mins post-addition
SARS-CoV-2 = test: Direct injection of Sx mixture or its components into virus suspension, Vero E6 plaque assay; assay type: cell-based; conditions: for activity of the component alone: direct injection (FIGS. 20 and 21)
[2] = target: RBD of the SARS-CoV-2 spike protein to ACE2 (Severe acute respiratory syndrome coronavirus 2, UniProt P0DTC2); conditions: cited from earlier work
[3] = propionic acid alone, direct injection

Row | Molecule | reduction of viral burden by individual components [1] | decline in viral burden ([1]; 1.4 µls alone) | decline in viral burden ([1]; 3.9 µls alone) | time to undetectable levels of virus ([1]; 7.7 µl alone, direct injection) | time to undetectable viral burden ([1]; 15.4 µls alone, direct injection) | EC50 volume over the entire study ([1]; direct injection, entire 360 min study (AUC of viral burden-time), 37° C.) | reduction in activity of the virus (SARS-CoV-2; acid alone at 3.9 µL) | activity of the component alone (SARS-CoV-2) | time to complete inactivation of the virus (SARS-CoV-2; propionic acid alone at 7.7 µL) | volume of acid necessary for relative immediate inactivation of the virus (SARS-CoV-2; [3]) | volume of acid necessary to get any appreciable activity (SARS-CoV-2; [3]) | reduction of the binding affinity of RBD to ACE2 ([2]; addition of peptide to SARS-CoV-2) | reduction of virus activity ([2]; peptide added to the virus) | suppression of SARS-CoV-2 replication, component alone ([1]; direct injection, all treatment arms (FIG. 7B)) | reduction in activity of the virus (SARS-CoV-2; esters alone (1.1 µL), at about 100 min) | reduction in virus activity (SARS-CoV-2; esters alone, highest concentration of 4.6 µL, over 300 minutes) | general reduction in virus activity (SARS-CoV-2; esters alone, within about 30 min, over the range of concentrations tested)
1 | CCC(=O)O [propionic acid] | minimal reduction of viral burden | 0.29 log10 PFU/ml | 0.98 log10 PFU/ml | 240 min | 15 min | 6.2 µls | about 0.5 log | only has marginal biological activity | 220 min | at least 15.4 µL | up to 7.7 µL | – | – | – | – | – | –
2 | GluGluLeuGlu | – | – | – | – | – | – | – | – | – | – | – | 34% | 34% | – | – | – | –
3 | isoamyl hexanoates | minimal reduction of viral burden | – | – | – | – | – | – | no lasting activity | – | – | – | – | – | substantially less effective | ~1 log | 1 order of magnitude | ~1 log
